Here are results for two molecules from ChEMBL document CHEMBL3727353, “Small-molecule choline kinase inhibitors as anti-cancer therapeutics” (2011).

A short description of data set [1]: Terminal half life in Balbc mouse at 5 mg/kg, iv by LC-MS/MS analysis. To be noted: BALB/c, in vivo, read-out: beta t1/2 (converted). It is filed as ADME, organism-based.
Data set [2] is described as follows: AUC (0 to infinity) in Balbc mouse at 5 mg/kg, iv by LC-MS/MS analysis. It is filed as ADME, organism-based. The arrangement: dose 5 mg/kg, time infinity, route intravenous. The settings on record: BALB/c, in vivo.
The nature of data set [3]: Clearance in Balbc mouse at 5 mg/kg, iv by LC-MS/MS analysis. It is filed as ADME, organism-based. To be noted: BALB/c, in vivo.
For a further data set, the system named is K562. The experiment in a line: Antiproliferative activity against human K562 cells after 72 hrs by alamar blue assay. It counts as functional, cell-based. The settings on record: K562, 72 h. On the technique in general: Alamar Blue is a resazurin reagent that responds to reducing activity.
For a further data set, the system named is MDA-MB-231. In words: Antiproliferative activity against human MDA-MB-231 cells after 72 hrs by alamar blue assay. It is filed as functional, cell-based. To be noted: MDA-MB-231, 72 h.

For the molecule `CCOc1ccc(-c2nnc(SCC(=O)Nc3cc(C)cc(C)c3)[nH]2)cc1F`, the half-life in data set [1] is 9 min. Further, the AUC(0-inf) – broadly, total exposure, with the tail of the curve extrapolated – in data set [2] was 1290 ng·h/mL. The clearance (as a rule, a measure of how efficiently the substance is removed, as volume per time) in data set [3] turned out to be 129 mL/min/kg.

`COc1ccc(-c2nnc(SCC(=O)Nc3ccc(F)cc3F)[nH]2)cc1`: the IC50 (usually the point on the concentration scale where inhibition reaches its midpoint) was 37 µM in the data set with K562 and 78.7 µM in the data set on MDA-MB-231.
